In test [1] the target is human Nav1.7 (Homo sapiens (Human), UniProt Q15858). Kind of test: FLIPR or FLIPR TETRA sodium dye assay with KCl and test article pre-incubation. The format is cell-based.
In test [2] the target is hNav1.7 (Homo sapiens (Human), UniProt Q15858). Kind of test: Electrophysiology (EP) assay, whole-cell patch clamp in hNav1.7 expressing HEK-293 cells. The format is cell-based. The following applies: affinity for inactivated state of hNav1.7, HEK-293; read-out: Nav1.7 Activity (μM) EP assay Ki. On the procedure: Cells Manual Electrophysiology: The hNav1.7 expressing HEK-293 cells are plated on 35 mm culture dishes pre-coated with poly-D-lysine in standard DMEM culture media (Mediatech, Inc., Herndon, Va.) and incubated in a 5% CO2 incubator at 37° C. Cultured cells are used approximately 12-48 hours after plating.
Cells Automated Electrophysiology: The hNav1.7 expressing HEK-293 cells are plated on tissue culture flasks in standard DMEM culture media (Mediatech, Inc.) and incubated in a 5% CO2 incubator at 37° C. Cultured cells are used approximately 12-48 hours after plating.
Manual Electrophysiology: On the day of experimentation, the 35 mm dish is placed on the stage of an inverted microscope equipped with a perfusion system that continuously perfuses the culture dish with fresh recording media. A gravity driven superfusion system is used to apply test solutions directly to the cell under evaluation. This “shooter” system consists of an array of glass pipettes connected to a motorized horizontal translator. The outlet of the shooter is positioned approximately 100 μm from the cell of interest.
Whole cell currents are recorded using the whole-cell patch clamp configuration using an Axopatch 200B amplifier (Axon Instruments, Foster City, Calif.), 1322A A/D converter (Axon Instruments) and pClamp software (v. 8; Axon Instruments) and stored on a personal computer. Gigaseals are formed and the whole-cell configuration is established in voltage clamp mode, and membrane currents generated by hNav1.7 channels are recorded. Borosilicate glass pipettes with resistance values between 1.5 and 2.0 MΩ when filled with pipette solution are used and series resistance (<5 MΩ) is compensated by 75-80%. Signals are sampled at 50 kHz and low pass filtered at 3 kHz.
Automated Electrophysiology: On the day of experimentation, cells are prepared by removing media and digesting with appropriate enzymes to suspend cells in external solution.
Whole cell currents are recorded using the whole-cell patch clamp configuration using an Patchliner (Nanion Technologies, Munich Germany), EPC 10 quadro amplifiers (HEKA, Bellmore, N.Y.) and PatchControl HT 10905 (Nanion Technologies) and PatchMaster v2x73 software (HEKA) and stored on a personal computer. Gigaseals are formed and the whole-cell configuration is established in voltage clamp mode, and membrane currents generated by hNav1.7 are recorded. NPC-16 chips have resistance values between 1.0 and 2.0 MΩ when filled with pipette solution and series resistance (<5 MΩ). Signals are sampled at 25 kHz and low pass filtered at 3 kHz.
Voltage protocols Manual Electrophysiology: After establishing the whole-cell configuration in voltage clamp mode, voltage protocols are run to establish the 1) test potential (Vmax), 2) holding potential (Vh), and 3) the conditioning potential for each cell.
After establishing the whole-cell configuration in voltage clamp mode, a standard I-V protocol is run to determine the potential at which the maximal current (Imax) is elicited. This potential is the test potential (Vt). To determine a conditioning potential at which 100% of channels are in the inactivated state, a standard steady-state inactivation (SSIN) protocol is run using a series of fifteen 100 ms-long depolarizing prepulses, incrementing in 10 mV steps, immediately followed by a 5 ms testing pulse to Vmax. This protocol also permits determination of the holding potential at which all channels are in the resting state.
For compounds causing significant retardation of recovery from inactivation, an estimate of the affinity for the inactivated state of the channel (Ki) is generated using the following protocol. From the negative, no residual inactivation, holding potential, the cell is depolarized to the conditioning voltage for 2-5 seconds, returned to the negative holding potential for 10-20 ms to relieve fast inactivation and then depolarized to the test potential for ˜15 ms. […]
On the technique in general: In patch-clamp work, channel activity is measured electrically.

Setting [3] is: recombinant human Nav1.7 in HEK293, veratridine + scorpion venom.

SMILES strings stand for the structures. Read-outs that look alike come from different tables or passages of the source.

By IC50 is commonly meant the concentration that inhibits the measured activity by half.

Chain of hNav1.7 (Q15858 other isoform, or with tags, fused parts or gaps): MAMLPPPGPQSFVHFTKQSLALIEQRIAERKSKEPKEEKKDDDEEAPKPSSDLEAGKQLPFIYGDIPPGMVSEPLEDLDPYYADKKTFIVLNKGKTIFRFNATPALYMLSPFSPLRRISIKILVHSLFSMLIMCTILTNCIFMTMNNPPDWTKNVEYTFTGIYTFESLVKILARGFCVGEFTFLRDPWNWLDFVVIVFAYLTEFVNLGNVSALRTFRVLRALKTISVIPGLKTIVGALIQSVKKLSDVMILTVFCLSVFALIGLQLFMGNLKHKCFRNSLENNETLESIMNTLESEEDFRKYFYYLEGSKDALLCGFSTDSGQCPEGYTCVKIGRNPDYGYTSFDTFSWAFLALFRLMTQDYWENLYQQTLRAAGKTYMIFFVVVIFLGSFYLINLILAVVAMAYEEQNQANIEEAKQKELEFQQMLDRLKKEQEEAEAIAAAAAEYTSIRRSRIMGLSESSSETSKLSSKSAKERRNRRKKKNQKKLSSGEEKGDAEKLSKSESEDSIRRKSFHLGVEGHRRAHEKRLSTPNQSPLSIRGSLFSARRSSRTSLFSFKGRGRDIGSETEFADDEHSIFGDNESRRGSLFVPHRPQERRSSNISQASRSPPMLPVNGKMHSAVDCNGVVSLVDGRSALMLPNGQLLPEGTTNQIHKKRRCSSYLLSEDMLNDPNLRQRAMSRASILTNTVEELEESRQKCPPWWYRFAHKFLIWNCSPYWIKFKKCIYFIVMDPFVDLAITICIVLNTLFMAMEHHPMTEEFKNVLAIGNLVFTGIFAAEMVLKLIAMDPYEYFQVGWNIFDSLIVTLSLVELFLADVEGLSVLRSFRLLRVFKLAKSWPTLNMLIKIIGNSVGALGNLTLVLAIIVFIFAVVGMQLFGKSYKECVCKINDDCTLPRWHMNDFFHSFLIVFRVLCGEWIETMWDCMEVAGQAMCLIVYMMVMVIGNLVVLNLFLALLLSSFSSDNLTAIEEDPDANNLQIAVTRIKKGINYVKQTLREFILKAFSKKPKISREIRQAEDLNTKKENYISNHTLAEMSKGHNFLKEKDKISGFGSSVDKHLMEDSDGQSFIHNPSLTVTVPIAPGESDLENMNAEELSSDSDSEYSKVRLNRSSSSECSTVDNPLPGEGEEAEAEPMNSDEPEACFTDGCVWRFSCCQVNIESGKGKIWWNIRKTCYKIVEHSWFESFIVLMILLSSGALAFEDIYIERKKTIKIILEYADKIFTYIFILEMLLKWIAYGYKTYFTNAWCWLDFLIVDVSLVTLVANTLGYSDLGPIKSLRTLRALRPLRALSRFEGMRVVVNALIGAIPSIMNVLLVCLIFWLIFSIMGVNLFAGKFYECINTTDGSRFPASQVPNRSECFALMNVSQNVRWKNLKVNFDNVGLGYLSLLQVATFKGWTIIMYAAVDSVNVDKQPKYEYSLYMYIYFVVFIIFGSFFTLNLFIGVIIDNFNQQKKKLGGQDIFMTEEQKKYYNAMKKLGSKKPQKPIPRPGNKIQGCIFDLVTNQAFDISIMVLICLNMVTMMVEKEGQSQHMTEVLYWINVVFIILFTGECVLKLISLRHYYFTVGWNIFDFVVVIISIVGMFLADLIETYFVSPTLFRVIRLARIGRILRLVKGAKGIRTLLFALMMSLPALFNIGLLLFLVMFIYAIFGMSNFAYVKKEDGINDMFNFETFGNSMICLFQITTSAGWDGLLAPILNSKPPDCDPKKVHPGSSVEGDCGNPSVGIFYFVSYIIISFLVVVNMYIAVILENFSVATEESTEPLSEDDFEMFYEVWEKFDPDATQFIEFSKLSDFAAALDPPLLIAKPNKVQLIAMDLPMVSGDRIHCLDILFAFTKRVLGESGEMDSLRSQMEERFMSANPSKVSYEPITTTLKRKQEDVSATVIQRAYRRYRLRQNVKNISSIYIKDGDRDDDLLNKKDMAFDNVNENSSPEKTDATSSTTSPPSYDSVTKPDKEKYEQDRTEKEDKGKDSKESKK
Chain of human Nav1.7 (Q15858 other isoform, or with tags, fused parts or gaps): as above

In the case of `NC(=O)c1cc(CN[C@H]2CCNC2=O)nc(-c2ccc(Oc3ccc(C4CC4)cn3)cc2)n1` [Compound 14, (S)-2-(4-((5-cyclopropylpyridin-2-yl)oxy)phenyl)-6-(((2-oxopyrrolidin-3-yl)amino)-methyl)pyrimidine-4-carboxamide], in test [1] (setting [3]), the IC50 was 3.39 ± 1.15 µM. Besides, the Ki in test [2] was found to be 1.41 ± 0.231 µM.
In the case of `NC(=O)c1cc(CN[C@H]2CCNC2=O)nc(-c2ccc(Oc3ccc(Cl)cc3F)cc2)n1` [Compound 15], the IC50 in test [1] (setting [3]) is 0.065 ± 0.01 µM. In addition, in test [2], the Ki came out at 0.041 ± 0.006 µM.
In the case of `NC(=O)c1cc(CN2CCC[C@H]2C(N)=O)nc(-c2ccc(Oc3ccc(C(F)(F)F)cc3)cc2)n1` [Compound 16, (S)-6-((2-carbamoylpyrrolidin-1-yl)methyl)-2-(4-(4-(trifluoro-methyl)phenoxy)phenyl)pyrimidine-4-carboxamide], in test [1] (setting [3]), the IC50 turned out to be 0.085 ± 0.012 µM.
The same measure, in the same setting: the value for `NC(=O)c1cc(CN[C@H]2CCNC2=O)nc(-c2ccc(Oc3ccc(C(F)(F)F)cc3)cc2)n1` [Compound 20, (S)-6-(((2-oxopyrrolidin-3-yl)amino)methyl)-2-(4-(4-(trifluoromethyl)phenoxy)phenyl)pyrimidine-4-carboxamide] was 0.439 ± 0.023 µM; that for `C[C@H](NCc1cc(C(N)=O)nc(-c2ccc(Oc3ccc(C(F)(F)F)cc3)cc2)n1)C(N)=O` [Compound 21, (S)-6-(((1-amino-1-oxopropan-2-yl)amino)methyl)-2-(4-(4-(trifluoromethyl)phenoxy)phenyl)pyrimidine-4-carboxamide] was 0.042 ± 0.006 µM.
Turning to `CC(C)[C@H](NCc1cc(C(N)=O)nc(-c2ccc(Oc3ccc(C(F)(F)F)cc3)cc2)n1)C(N)=O` [Compound 22, (S)-6-(((1-amino-3-methyl-1-oxobutan-2-yl)amino)methyl)-2-(4-(4-(trifluoromethyl)-phenoxy)phenyl)pyrimidine-4-carboxamide], the IC50 in test [1] (setting [3]) stood at 0.2 ± 0.045 µM. Besides, the Ki in test [2] amounted to 0.22 ± 0.034 µM.
In the same order, the values of `NC(=O)c1cc(CN[C@@H](CO)C(N)=O)nc(-c2ccc(Oc3ccc(C(F)(F)F)cc3)cc2)n1` [Compound 23, (S)-6-(((1-amino-3-hydroxy-1-oxopropan-2-yl)amino)methyl)-2-(4-(4-(trifluoromethyl)-phenoxy)phenyl)pyrimidine-4-carboxamide] are 0.2 ± 0.045 µM and 0.145 ± 0.044 µM.
`NC(=O)c1cc(CN2C[C@H](O)C[C@H]2C(N)=O)nc(-c2ccc(Oc3ccc(C(F)(F)F)cc3)cc2)n1` [Compound 24, 6-(((2S, 4R)-2-carbamoyl-4-hydroxypyrrolidin-1-yl)methyl)-2-(4-(4-(trifluoromethyl)-phenoxy)phenyl)pyrimidine-4-carboxamide]: the IC50 in test [1] (setting [3]) turned out to be 0.583 ± 0.056 µM. Besides, the Ki in test [2] is 0.342 ± 0.095 µM.
In the same order, the values of `NC(=O)c1cc(CN[C@H]2CCNC2=O)nc(-c2ccc(Oc3ccc(C(F)(F)F)cn3)cc2)n1` [Compound 26, (S)-6-(((2-oxopyrrolidin-3-yl)amino)methyl)-2-(4-((5-(trifluoromethyl)pyridin-2-yl)oxy)phenyl)pyrimidine-4-carboxamide] are 1.75 ± 0.6 µM and 0.662 ± 0.13 µM.
On the same counts, the results for `NC(=O)c1cc(CN2CCNC(=O)C2)nc(-c2ccc(Oc3ccc(C(F)(F)F)cc3)cc2)n1` [Compound 27, 6-((3-oxopiperazin-1-yl)-methyl)-2-(4-(4-(trifluoro-methyl)phenoxy)phenyl)pyrimidine-4-carboxamide] are 0.072 ± 0.008 µM and 0.08 ± 0.027 µM.
Regarding `NC(=O)c1cc(CN2CCNC(=O)C2)nc(-c2ccc(Oc3ccc(C(F)(F)F)cn3)cc2)n1` [Compound 28, 6-((3-oxopiperazin-1-yl)-methyl)-2-(4-((5-(trifluoro-methyl)pyridin-2-yl)oxy)-phenyl)pyrimidine-4-carboxamide], the IC50 in test [1] came out at 2.45 ± 0.133 µM.
In the case of `O=C1NCC[C@@H]1NCc1cc([C@H](O)CO)nc(-c2ccc(Oc3ccc(OC(F)(F)F)cc3)cc2)n1` [Compound 40, (S)-3-(((6-((S)-1,2-dihydroxyethyl)-2-(4-(4-(trifluoromethoxy)phenoxy)phenyl)pyrimidin-4-yl)methyl)-amino)pyrrolidin-2-one], the IC50 in test [1] (setting [3]) is 1.55 ± 0.215 µM. Further, the Ki in test [2] was determined as 2.68 ± 0.206 µM.
Consider `O=C1CN(Cc2cc([C@H](O)CO)nc(-c3ccc(Oc4ccc(OC(F)(F)F)cc4)cc3)n2)CCN1` [Compound 41, (S)-4-((6-(1,2-dihydroxyethyl)-2-(4-(4-(trifluoromethoxy)-phenoxy)phenyl)pyrimidin-4-yl)methyl)piperazin-2-one], for which, in test [1], the IC50 stood at 1.19 ± 0.11 µM. Besides, the Ki in test [2] stood at 0.875 ± 0.167 µM.
Consider `NC(=O)c1cc(CO)nc(C2=CCC(Oc3ccc(C(F)(F)F)cc3)CC2)n1` (stereo not drawn) [Compound 54, 6-(hydroxymethyl)-2-(4-(4-(trifluoromethyl)phenoxy)cyclohex-1-en-1-yl)pyrimidine-4-carboxamide], for which, in test [1] (setting [3]), the IC50 came out at 0.242 ± 0.023 µM.
`NC(=O)c1cc(CN[C@@H]2CCNC2=O)nc(C2=CCC(Oc3ccc(C(F)(F)F)cc3)CC2)n1` (stereo partly drawn) [Compound 56, 6-((((R)-2-oxopyrrolidin-3-yl)amino)methyl)-2-(4-(4-(trifluoromethyl)phenoxy)cyclohex-1-en-1-yl)pyrimidine-4-carboxamide]: the IC50 in test [1] (setting [3]) was found to be 0.544 ± 0.062 µM. For the same compound, the Ki in test [2] is 0.117 ± 0.01 µM.
On the same counts, the results for `C[C@H](NCc1cc(C(N)=O)nc(C2=CCC(Oc3ccc(C(F)(F)F)cc3)CC2)n1)C(N)=O` (stereo partly drawn) [Compound 57] are 0.557 ± 0.049 µM and 0.175 ± 0.039 µM.
On the same counts, the results for `NC(=O)c1cc(CN[C@@H](CO)C(N)=O)nc(C2=CCC(Oc3ccc(C(F)(F)F)cc3)CC2)n1` (stereo partly drawn) [Compound 58, 6-((((S)-1-amino-3-hydroxy-1-oxopropan-2-yl)amino)-methyl)-2-(4-(4-(trifluoromethyl)-phenoxy)cyclohex-1-en-1-yl)pyrimidine-4-carboxamide] are 1.47 ± 0.091 µM and 0.524 ± 0.161 µM.
Consider `NC(=O)c1cc(CN2CCNC(=O)C2)nc(C2=CCC(Oc3ccc(C(F)(F)F)cc3)CC2)n1` (stereo not drawn) [Compound 59, 6-((3-oxopiperazin-1-yl)-methyl)-2-(4-(4-(trifluoro-methyl)phenoxy)cyclohex-1-en-1-yl)pyrimidine-4-carboxamide], for which the IC50 in test [1] stood at 0.07 ± 0.003 µM. Further, the Ki in test [2] came out at 0.059 ± 0.018 µM.
As for `CC1(C)C(=O)NCCN1Cc1cc(C(N)=O)nc(-c2ccc(Oc3ccc(C(F)(F)F)cn3)cc2)n1` [Compound 60, 6-((2,2-dimethyl-3-oxopiperazin-1-yl)methyl)-2-(4-((5-(trifluoromethyl)pyridin-2-yl)oxy)phenyl)pyrimidine-4-carboxamide], in test [1] (setting [3]), the IC50 was > 20 µM.
`CC1(C)C(=O)NCCN1Cc1cc(C(N)=O)nc(-c2ccc(Oc3ccc(C(F)(F)F)cc3)cc2)n1` [Compound 61, 6-((2,2-dimethyl-3-oxopiperazin-1-yl)methyl)-2-(4-(4-(trifluoromethyl)phenoxy)-phenyl) pyrimidine-4-carboxamide] gave an IC50 in test [1] of 0.627 ± 0.022 µM.
On to `NC(=O)c1cc(CN2CC(=O)NC(=O)C2)nc(-c2ccc(Oc3ccc(C(F)(F)F)cc3)cc2)n1` [Compound 62, 6-((3,5-dioxopiperazin-1-yl)methyl)-2-(4-(4-(trifluoro-methyl)phenoxy)phenyl)pyrimidine-4-carboxamide], for which the IC50 in test [1] (setting [3]) stood at 0.205 ± 0.006 µM.
Take `NC(=O)c1cc(CN2CC[C@@H](O)[C@H]2C(N)=O)nc(-c2ccc(Oc3ccc(C(F)(F)F)cc3)cc2)n1` [Compound 65, 6-(((2S,3R)-2-carbamoyl-3-hydroxypyrrolidin-1-yl)methyl)-2-(4-(4-(trifluoromethyl)-phenoxy)phenyl)pyrimidine-4-carboxamide]: the IC50 in test [1] (setting [3]) stood at 0.094 ± 0.008 µM. The Ki in test [2] amounted to 0.046 ± 0.009 µM.
